The nature of the series: Equilibrium density gradient centrifugation of adjuvanted RSV virosomes. Conditions: 10-60% sucrose gradient, spun 66 hrs, after overnight storage at 4° C. It is filed as physicochemical.

Molecules are shown by their SMILES.

Protocol: To 975 μl of virosomes, containing 850 nmol of phospholipids, 25 μl of DMSO solution containing 153 nmol of 3-D-PHAD was rapidly added while agitating the sample on a vortex mixer. After overnight storage at 4° C., the density of the virosomes was analyzed by equilibrium density gradient centrifugation loaded on 10-60% sucrose gradients, which were spun for 66 hrs in a Sorvall AH 650 rotor at 50 krpm. […] Samples from the gradient were analyzed for sucrose concentration by refractometry, giving a measure of density, phosphate (both lipid and 3-D-PHAD), and protein.
The above adjuvant solutions were added to four tubes with 950 μl of virosomes each, containing 850 nmol of phospholipids, with rapid mixing on a vortex. After overnight storage at 4° C., the density of the virosomes was analyzed by equilibrium density gradient centrifugation on 10-60% sucrose gradients, which were spun for 66 hrs in a Sorvall AH 650 rotor at 120 000 g. Samples from the gradient were analyzed for density, phosphate (both lipid and 3 DPHAD), and protein.

For the compound `CCCCCCCCCCCCCC(=O)O[C@H](CCCCCCCCCCC)CC(=O)O[C@@H]1[C@@H](NC(=O)C[C@@H](CCCCCCCCCCC)OC(=O)CCCCCCCCCCC)[C@H](OC[C@H]2O[C@H](O)[C@H](NC(=O)C[C@H](O)CCCCCCCCCCC)[C@@H](O)[C@@H]2O)O[C@H](CO)[C@H]1OP(=O)(O)O.N` [3-D-PHAD], the “density of band in equilibrium density gradient” value was “around 1.12 g/ml”.

Values taken from US10588963B2, “Methods for providing adjuvanted virosomes and adjuvanted virosomes obtainable thereby” (Bestewil Holding B.V., priority 2014, dated 2020).
